From patent US9216991B2 (Ares Trading S.A., priority 2012, dated 2015)
pIC50: −log10 of the molar value. Where a name gives a salt, the structure may show the parent alone.

The compounds below were run against T1, IRAK4 (Homo sapiens, UniProt Q9NWZ3) (assay: IRAK4 Enzymatic Assay). Details: His-TEV-IRAK4 20 ng/well, ATP 2 μM, STK1-biotin peptide 300 nM, 3 hours at 30° C., FlashPlate radioactivity.
T1 construct: His (N); TEV cleavage site (N)
T1 sequence (Q9NWZ3 1-460): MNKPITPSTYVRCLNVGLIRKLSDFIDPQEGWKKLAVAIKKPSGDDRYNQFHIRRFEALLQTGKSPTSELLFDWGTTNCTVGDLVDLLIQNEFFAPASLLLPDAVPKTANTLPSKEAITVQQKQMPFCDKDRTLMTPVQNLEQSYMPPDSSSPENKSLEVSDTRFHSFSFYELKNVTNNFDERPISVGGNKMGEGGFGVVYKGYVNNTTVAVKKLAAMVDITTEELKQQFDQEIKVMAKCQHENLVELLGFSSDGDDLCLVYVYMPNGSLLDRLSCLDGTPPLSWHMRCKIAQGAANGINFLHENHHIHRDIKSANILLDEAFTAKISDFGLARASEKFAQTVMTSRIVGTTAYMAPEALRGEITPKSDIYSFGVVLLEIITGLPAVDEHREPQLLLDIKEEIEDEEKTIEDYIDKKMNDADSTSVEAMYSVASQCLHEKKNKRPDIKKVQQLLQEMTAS
Type: biochemical
Protocol: IRAK4 is a human purified recombinant enzyme (His-TEV-IRAK1 (194-712)
IRAK4 hydrolyses ATP, autophosphorylates and phosphorylates a Serine/Threonine generic peptidic substrate (STK: 61ST1BLC from CisBio International based in Bagnols/Cèze FR).
Measurement of IRAK-4 inhibition is performed in streptavidin coated 384 well FlashPlate (PerkinElmer #SMP410A). His-TEV-IRAK4 (20 ng/well), ATP (2 μM, [^33P]ATP 0.25 μCi/well), STK1-biotin peptide (300 nM) and compounds in DMSO (range of concentrations from 20 μM to 1nM) or controls (2% DMSO) are incubated for 3 hours at 30° C. in assay buffer: Hepes pH7.0 50 mM, Fatty acid-free BSA 0.1%, Dithiothreitol DTT 2 mM, MgCl2 10 mM, EGTA 0.5 mM, Tween-20 0.01%, MnCl2 5 mM.
Kinase reaction is stopped by addition of EDTA. Supernatant is discarded, plates are washed three times with 150 mM NaCl and radioactivity is then measured in a Microbeta Trilux reader.

Structure (SMILES)	pIC50
CC(=O)N1CCC(n2cc(-c3cnc(-c4cccc(-c5cnn(C)c5)c4)nc3)cn2)CC1 [Example 5, 1-[4-(4-{2-[3-(1-Methyl-1H-pyrazol-4-yl)-phenyl]-pyrimidin-5-yl}-pyrazol-1-yl)-piperidin-1-yl]-ethanone]	> 7.00
CN1CCC(n2cc(-c3cnc(-c4cccc(-c5cnn(C)c5)c4)nc3)cn2)CC1 [Example 6, 5-[1-(1-Methyl-piperidin-4-yl)-1H-pyrazol-4-yl]-2-[3-(1-methyl-1H-pyrazol-4-yl)-phenyl]-pyrimidine]	6.00 to 7.00
c1cc(-c2ccoc2)cc(-c2ncc(-c3cnn(C4CCNCC4)c3)cn2)c1 [Example 7, 2-(3-Furan-3-yl-phenyl)-5-(1-piperidin-4-yl-1H-pyrazol-4-yl)-pyrimidine Hydrochloride]	6.00 to 7.00
Cn1cc(-c2cccc(-c3ncc(-c4cnn(CC(=O)O)c4)cn3)c2)cn1 [Example 8]	5.30 to 6.00
Cn1cc(-c2cccc(-c3ncc(-c4cnn(CC(=O)N5CCCC5)c4)cn3)c2)cn1 [Example 9, 2-(4-{2-[3-(1-Methyl-1H-pyrazol-4-yl)-phenyl]-pyrimidin-5-yl}-pyrazol-1-yl)-1-pyrrolidin-1-yl-ethanone]	6.00 to 7.00
Cn1cc(-c2cccc(-c3ncc(-c4cnn(CCN5CCOCC5)c4)cn3)c2)cn1 [Example 10, 4-[2-(4-{2-[3-(1-Methyl-1H-pyrazol-4-yl)-phenyl]-pyrimidin-5-yl}-pyrazol-1-yl)-ethyl]-morpholine]	6.00 to 7.00
CN(C)CCn1cc(-c2cnc(-c3cccc(-c4cnn(C)c4)c3)nc2)cn1 [Example 11, Dimethyl-[2-(4-{2-[3-(1-methyl-1H-pyrazol-4-yl)-phenyl]-pyrimidin-5-yl}-pyrazol-1-yl)-ethyl]-amine]	5.30 to 6.00
Cn1cc(-c2cccc(-c3ncc(-c4cnn(C5CCOC5)c4)cn3)c2)cn1 (stereo not shown) [Example 12, 2-[3-(1-Methyl-1H-pyrazol-4-yl)-phenyl]-5-[1-(tetrahydro-furan-3-yl)-1H-pyrazol-4-yl]-pyrimidine]	6.00 to 7.00
c1cc(-c2cnoc2)cc(-c2ncc(-c3cnn(C4CCNCC4)c3)cn2)c1 [Example 13, 2-(3-Isoxazol-4-yl-phenyl)-5-(1-piperidin-4-yl-1H-pyrazol-4-yl)-pyrimidine hydrochloride]	6.00 to 7.00
Cc1nn(C)cc1-c1cccc(-c2ncc(-c3cnn(C4CCNCC4)c3)cn2)c1 [Example 14, 2-[3-(1,3-Dimethyl-1H-pyrazol-4-yl)-phenyl]-5-(1-piperidin-4-yl-1H-pyrazol-4-yl)-pyrimidine hydrochloride]	5.30 to 6.00
Cc1c(-c2cccc(-c3ncc(-c4cnn(C5CCNCC5)c4)cn3)c2)cnn1C [Example 15, 2-[3-(1,5-Dimethyl-1H-pyrazol-4-yl)-phenyl]-5-(1-piperidin-4-yl-1H-pyrazol-4-yl)-pyrimidine hydrochloride]	6.00 to 7.00
FCC(CF)n1cc(-c2cccc(-c3ncc(-c4cnn(C5CCNCC5)c4)cn3)c2)cn1 [Example 16, 2-{3-[1-(2-Fluoro-1-fluoromethyl-ethyl)-1H-pyrazol-4-yl]-phenyl}-5-(1-piperidin-4-yl-1H-pyrazol-4-yl)-pyrimidine hydrochloride]	6.00 to 7.00
O=C(Cn1cc(-c2cccc(-c3ncc(-c4cnn(C5CCNCC5)c4)cn3)c2)cn1)N1CCCC1 [Example 17, 2-(4-{3-[5-(1-Piperidin-4-yl-1H-pyrazol-4-yl)-pyrimidin-2-yl]-phenyl}-pyrazol-1-yl)-1-pyrrolidin-1-yl-ethanone hydrochloride]	5.30 to 6.00
c1cc(-c2cn[nH]c2)cc(-c2ncc(-c3cnn(C4CCNCC4)c3)cn2)c1 [Example 18, 5-(1-Piperidin-4-yl-1H-pyrazol-4-yl)-2-[3-(1H-pyrazol-4-yl)-phenyl]-pyrimidine hydrochloride]	> 7.00
CCCn1cc(-c2cccc(-c3ncc(-c4cnn(C5CCNCC5)c4)cn3)c2)cn1 [Example 19, 5-(1-Piperidin-4-yl-1H-pyrazol-4-yl)-2-[3-(1-propyl-1H-pyrazol-4-yl)-phenyl]-pyrimidine hydrochloride]	6.00 to 7.00
CC(C)n1cc(-c2cccc(-c3ncc(-c4cnn(C5CCNCC5)c4)cn3)c2)cn1 [Example 20, 2-[3-(1-Isopropyl-1H-pyrazol-4-yl)-phenyl]-5-(1-piperidin-4-yl-1H-pyrazol-4-yl)-pyrimidine hydrochloride]	6.00 to 7.00

Structure (SMILES)	pIC50
c1ccc(Cn2cc(-c3cccc(-c4ncc(-c5cnn(C6CCNCC6)c5)cn4)c3)cn2)cc1 [Example 21, 2-[3-(1-Benzyl-1H-pyrazol-4-yl)-phenyl]-5-(1-piperidin-4-yl-1H-pyrazol-4-yl)-pyrimidine hydrochloride]	6.00 to 7.00
Cn1cc(-c2cccc(-c3ncc(-c4cnn(Cc5cccnc5)c4)cn3)c2)cn1 [Example 22, 2-[3-(1-Methyl-1H-pyrazol-4-yl)-phenyl]-5-(1-pyridin-3-ylmethyl-1H-pyrazol-4-yl)-pyrimidine]	6.00 to 7.00
Cn1cc(-c2cc(F)cc(-c3ncc(-c4cnn(C5CCNCC5)c4)cn3)c2)cn1 [Example 24, 2-[3-Fluoro-5-(1-methyl-1H-pyrazol-4-yl)-phenyl]-5-(1-piperidin-4-yl-1H-pyrazol-4-yl)-pyrimidine hydrochloride]	6.00 to 7.00
Cn1cc(-c2cccc(-c3ncc(-c4cnn(CC(=O)N5CCCCC5)c4)cn3)c2)cn1 [Example 25, 2-(4-{2-[3-(1-Methyl-1H-pyrazol-4-yl)-phenyl]-pyrimidin-5-yl}-pyrazol-1-yl)-1-piperidin-1-yl-ethanone]	5.30 to 6.00
Cn1cc(-c2cccc(-c3ncc(-c4cnn(C5CNC5)c4)cn3)c2)cn1 [Example 26, 5-(1-Azetidin-3-yl-1H-pyrazol-4-yl)-2-[3-(1-methyl-1H-pyrazol-4-yl)-phenyl]-pyrimidine hydrochloride]	5.30 to 6.00
COCCCn1cc(-c2cnc(-c3cccc(-c4cnn(C)c4)c3)nc2)cn1 [Example 27, 5-[1-(3-Methoxy-propyl)-1H-pyrazol-4-yl]-2-[3-(1-methyl-1H-pyrazol-4-yl)-phenyl]-pyrimidine]	6.00 to 7.00
Cn1cc(-c2cccc(-c3ncc(-c4cnn(C5CCN(C6COC6)CC5)c4)cn3)c2)cn1 [Example 28, 2-[3-(1-Methyl-1H-pyrazol-4-yl)-phenyl]-5-[1-(1-oxetan-3-yl-piperidin-4-yl)-1H-pyrazol-4-yl]-pyrimidine]	6.00 to 7.00
Cn1cc(-c2cccc(-c3ncc(-c4cnn(CC5CCNCC5)c4)cn3)c2)cn1 [Example 29, 2-[3-(1-Methyl-1H-pyrazol-4-yl)-phenyl]-5-(1-piperidin-4-ylmethyl-1H-pyrazol-4-yl)-pyrimidine hydrochloride]	5.30 to 6.00
Cn1cc(-c2cccc(-c3ncc(-c4cnn(C5CCNCC5F)c4)cn3)c2)cn1 (stereo not drawn) [Example 30, trans-5-[1-(3-Fluoro-piperidin-4-yl)-1H-pyrazol-4-yl]-2-[3-(1-methyl-1H-pyrazol-4-yl)-phenyl]-pyrimidine hydrochloride]	6.00 to 7.00
Cn1cc(-c2cccc(-c3ncc(-c4cnn(C5CCN(CC(O)C(F)(F)F)CC5)c4)cn3)c2)cn1 (stereo not shown) [Example 31, 1,1,1-Trifluoro-3-[4-(4-{2-[3-(1-methyl-1H-pyrazol-4-yl)-phenyl]-pyrimidin-5-yl}-pyrazol-1-yl)-piperidin-1-yl]-propan-2-ol]	6.00 to 7.00
c1cc(-c2ccncc2)cc(-c2ncc(-c3cnn(C4CCNCC4)c3)cn2)c1 [Example 33, 5-(1-Piperidin-4-yl-1H-pyrazol-4-yl)-2-(3-pyridin-4-yl-phenyl)-pyrimidine hydrochloride]	6.00 to 7.00
Cn1cc(-c2cc(O)cc(-c3ncc(-c4cnn(C5CCNCC5)c4)cn3)c2)cn1 [Example 34, 3-(1-Methyl-1H-pyrazol-4-yl)-5-[5-(1-piperidin-4-yl-1H-pyrazol-4-yl)-pyrimidin-2-yl]-phenol Formate]	6.00 to 7.00
COCC(O)Cn1cc(-c2cnc(-c3cccc(-c4cnn(C)c4)c3)nc2)cn1 (stereo not shown) [Example 35, 1-Methoxy-3-(4-{2-[3-(1-methyl-1H-pyrazol-4-yl)-phenyl]-pyrimidin-5-yl}-pyrazol-1-yl)-propan-2-ol]	5.30 to 6.00
Cn1cc(-c2cccc(-c3ncc(-c4cnn(CC(=O)N5CCOCC5)c4)cn3)c2)cn1 [Example 36, 2-(4-{2-[3-(1-Methyl-1H-pyrazol-4-yl)-phenyl]-pyrimidin-5-yl}-pyrazol-1-yl)-1-morpholin-4-yl-ethanone]	6.00 to 7.00
Cn1cncc1-c1cccc(-c2ncc(-c3cnn(CC(=O)N4CCCC4)c3)cn2)c1 [Example 37, 2-(4-{2-[3-(3-Methyl-3H-imidazol-4-yl)-phenyl]-pyrimidin-5-yl}-pyrazol-1-yl)-1-pyrrolidin-1-yl-ethanone]	5.30 to 6.00
